Experiment [1] relates to Eμ-Myc cells (mouse primary B lymphoma cells), gapdh^low vs gapdh^high. The experiment can be described thus: Cell death assay (DAPI staining, flow cytometry). Format: cell-based. How it is done: C57BL/6 Eμ-Myc transgenic mice were purchased from the Jackson Laborator.
Eμ-Myc cells (0.2×10^6) were seeded in 96 well-plates in the presence or absence of 200 μM of phenformin (Sigma) for 24 hours and 48 hours. Cells were then labeled with DAPI (Molecular Probes; 0.5 μg/mL) and analyzed immediately by flow cytometry using a MACSQuant Analyzer (Miltenyi Biotec).
(Flow cytometry measures light scatter and fluorescence of single cells or particles in a stream.)

Experiment [2] deals with Eμ-Myc-gapdh^low lymphoma. In words: Animal study: lymphoma transfer of Eμ-Myc-gapdh^low cells into syngeneic C57BL/6 mice. The conditions noted are these: Eμ-Myc-gapdh^low-bearing mice; 200 mg/kg/day phenformin in drinking water for 12 days; FIG. 5. The experiment is classed as in vivo, mouse. The method, then: Lymphoma transfer of a isolated Eμ-Myc clone was realized into syngeneic, nontransgenic, 6-week-old C57BL/6 females by tail vein injection of 0.1×10^6 viable Eμ-Myc lymphoma cells per recipient mouse (in 150 μL of sterile PBS). Phenformin treated group received 200 mg/kg/day phenformin in the drinking water for 12 days. Phenformin powder was dissolved every two days in the drinking water, taking into account the mouse body weight and the volume of water consumed each day. Untreated mice (controls) received water (n=10 mice/group). Food was given ad libitum. The first signs of the pathology were determined by inguinal lymph node palpation and analyses of blood sample with Hemavet 950FS (Drew Scientific, INC, France). Progression-free survival was determined by the time between the iv injection of the cell and the appearance of enlarged lympho nodes. Lymphoma-bearing animals were killed by cervical dislocation as soon as they presented signs of illness. Upon sacrifice all lymph node tumors and spleen are immediately collected and weighted. All mice were maintained in specific pathogen-free conditions and experimental procedures were approved by the Institutional Animal Care and Use Committee and by the regional ethics committee (PEA232 from Comité Institutionnel d'Ethique Pour l'Animal de Laboratoire—AZUR).

Experiment [3] relates to Eμ-Myc cells (mouse primary B lymphoma cells), gapdh^low vs gapdh^high. The experiment can be described thus: Proliferation assay (proliferation index, DAPI exclusion). Format: cell-based. The conditions noted are these: phenformin 50 μM, 24 and 48 hours. The method, then: Mouse primary Eμ-Myc clones (B lymphoma cells) obtained from lymphomas of different C57BL/6 Eμ-Myc transgenic mice were isolated as described previously (Lindemann et al., 2007) and maintained in DMEM supplemented with 10% FCS, 2-mercaptoethanol (50 μM), L-asparagin (0.37 mM) and HEPES (pH 7.4, 10 mM). C57BL/6 Eμ-Myc transgenic mice were purchased from the Jackson Laborator.
Eμ-Myc cells (0.2×10^6) were seeded in 96 well-plates in the presence or absence of 50 μM of Phenformin for 0, 24 and 48 hours. Number of living and dead cells was counted using DAPI staining exclusion by flow cytometry (MACSQuant Analyser, Miltenyi Biotec). Proliferation index were calculated by dividing the number of living cells obtained for each day by the one obtained the day of seeding (day 0).

This is an account of results in patent US10947598B2, “Methods for determining the metabolic status of lymphomas” (INSERM (Institut National de la Sante et de la Recherche …, priority 2015, dated 2021).

Entries after “also recorded” stand apart in the source; their conditions may differ.

Turning to `[H]/N=C(/N)N/C(=N/[H])NCCc1ccccc1` [phenformin], the “Sensitivity to phenformin (cell death)” value in experiment [1] (Eμ-Myc-gapdh^high cells silenced for gapdh (shgapdh) vs control, phenformin 100 μM, 24 and 48 hours, FIG. 4A) was “more sensitive; also recorded: sensitizes”; in experiment [1] (Eμ-Myc-gapdh^low vs Eμ-Myc-gapdh^high clones, phenformin 200 μM, 24 hours, FIG. 3A), “more sensitive”. Also, in experiment [2], the “B lymphoma progression (progression-free survival, size of axillary lymphomas and spleen)” value is “reduced”. For the same compound, the “Sensitivity to phenformin (proliferation index)” value in experiment [3] (Eμ-Myc-gapdh^high cells silenced for gapdh (shgapdh) vs control, FIG. 4B) is on record as “more sensitive”; in experiment [3] (Eμ-Myc-gapdh^low vs Eμ-Myc-gapdh^high clones, FIG. 3B), “more sensitive”.

With L-asparaginase, the “Sensitivity to L-asparaginase (cell death)” value is listed as “more sensitive; also recorded: sensitizes” in experiment [1] (Eμ-Myc-gapdh^high cells silenced for gapdh (shgapdh) vs control, L-asparaginase 0.3 UI/ml, 24 hours, FIG. 4C) and “more sensitive” in experiment [1] (Eμ-Myc-gapdh^low vs Eμ-Myc-gapdh^high clones, L-asp 0.3 UI/ml, 1.0 UI/ml, 24 hours, FIG. 3C).
